Laboratory results published in publication PMC6796659, “Topoisomerase IB poisons induce histone H2A phosphorylation as a response to DNA damage in Leishmania infantum” (International Journal for Parasitology: Drugs and Drug …, 2019).

Assays:
Assay type in all cases: cell-based, Leishmania infantum
[1] = test system: TopIB-DNA complexes in L. infantum promastigotes; test: SDS/K-DNA precipitation (in situ cleavage complex formation); details: highest concentration 30 μM, 30 min, data not shown
Procedure: In order to measure the fragmentation of DNA induced by Top poisons, L. infantum promastigotes, previously labeled with 0.5 mCi/mL [2–^14C] thymidine for 24 h, were exposed to different concentrations of indenoisoquinolines for 30 min, followed by precipitation with SDS/KCl, according to the method described previously ([Balaña-Fouce et al., 2012]). DNA fragmentation was determined as the percentage of total labeled DNA, and was calculated as follows: [(dpm in SDS/KCl drug - dpm in SDS/KCl solvent)/(dpm total incorporation)] x 100. Each experiment was run at least in triplicate.

[2] = test system: iRFP L. infantum amastigotes infecting mouse splenocytes; test: Antileishmanial activity on iRFP L. infantum amastigotes in ex vivo murine splenic explants
Procedure: Five-week BALB/c female mice infected intraperitoneally with 1.5 × 10^9 metacyclic iRFP L. infantum promastigotes were sacrificed to eviscerate their spleens, which were processed to obtain a suspension of primary splenocytes. Briefly, freshly dissected spleens were washed with cold phosphate-buffered saline (PBS), cut in small pieces and incubated for 20 min with 5 mL of 2 mg/mL collagenase D (Sigma) prepared in buffer (10 mM HEPES, pH 7.4, 150 mM NaCl, 5 mM KCl, 1 mM MgCl2 and 1.8 mM CaCl2). Then, the cell suspension was passed through a 100 μm cell strainer, harvested by centrifugation (500×g for 7 min at 4 °C), washed twice with PBS, and resuspended in RPMI medium (Gibco) supplemented with 10 mM HEPES, 1 mM sodium pyruvate, 1xRPMI 1640 vitamin mix, 10% (v/v) FBS, 50 U/mL penicillin and 50 μg/mL streptomycin. The cell suspension was cultured in 384-well optical bottom black plates (Thermo Scientific) at 37 °C under 5% CO2 atmosphere.
The antileishmanial activity of the compounds was tested both in promastigotes and in amastigotes infecting mouse splenocytes. For this purpose, 384-well optical bottom black plates (Thermo Scientific) were seeded either with free-living iRFP L. infantum promastigotes or with splenic explants infected with iRFP L. infantum amastigotes, which were incubated at 26 °C or 37 °C, respectively. The viability of both iRFP L. infantum stages was measured by recording the fluorescence emitted by viable cells at 708 nm in an Odyssey (Li-Cor) infrared imaging system after a 72-h period of incubation with different concentrations of the compounds. Dose-response curves were obtained by plotting the infrared fluorescence emission of viable parasites vs. different concentrations of testing compounds and were fitted by nonlinear analysis using the Sigma-Plot 10.0 statistical package. The reduction of infrared emission with respect to the negative control was used to determine the 50% effective concentration to kill the parasites (EC50). Both controls and treated groups were tested with DMSO (drug vehicle) concentrations below 0.1%. All compounds and controls were assayed in triplicate.

[3] = test system: histone H2A (Thr128) in L. infantum promastigotes; test: Histone H2A phosphorylation (γH2A) by Western blot; details: 10 μM, 0, 15, 60, 120 min
Procedure: To detect H2A phosphorylation by L. infantum promastigotes, parasites in exponential growing phase (5–6 x 10^6 cells/mL) were incubated at 26 °C with CPT derivatives and indenoisoquinolines at a final concentration in the supplemented 199 standard medium of 10 μM. Control cells were treated with the drug vehicle DMSO using concentrations below 0.1%. After 0, 15, 60 and 120-min incubations, promastigotes were harvested by centrifugation, washed twice in PBS and the pellet resuspended in lysis buffer containing 50 mM Tris (pH:7), 50 mM NaCl, 20 mM NaF, 0.1% Tween 20 and 2x protease inhibitors (PIERCE™ protease inhibitor mini tablets). Twenty micrograms of the different extracts were loaded onto 15% SDS-PAGE gels, electrophoresed and transferred to PVDF membranes (Immobilon-FL, Millipore) using a mini trans-blot electrophoretic transfer cell (Bio-Rad). Polyclonal γH2A antisera were used at a 1:2000 dilution and secondary goat anti-rabbit IgG IRDye680 (Li-Cor Biosciences) was used at a 1:15000 dilution. The peptide competition assay was done incubating the polyclonal γH2A antisera with 50 ng/mL of the appropriate peptide (with and without phosphorylation at Thr residue) in blocking buffer for 1 h at room temperature before blotting. Loading control was performed using a monoclonal α tubulin mouse antibody at 2 μg/mL (final concentration) and a goat anti-mouse IgG IRDye 800 (Li-Cor Biosciences) as secondary antibody. Bands were visualized in an Odissey® (Li-Cor Biosciences) infrared detection facility. The quantification of γH2A signal was done with Bio-Rad Quantity One Analysis Software.

NCCCn1c2c(c3ccccc3c1=O)C(=O)c1ccccc1-2 [Compound 2]
protein-DNA complexes (SDS/K-DNA precipitable) [1]: 10%
SI (Selectivity Index) ([2]; CC50 (splenocytes)/EC50 (amastigotes)): 4.9
EC50 ([2]; Leishmania infantum, Splenocyte, splenic-infecting iRFP L. infantum amastigotes, 72 h, 37 °C, read-out: EC50 (μM) L. infantum amastigotes): 0.12 ± 0.05 µM
γH2A signal (H2A phosphorylation), Western blot [3]: strong γH2A signaling
